# Literature values in US6569898B2, “Use of (Z) -2-cyano-3-hydroxy-but-2-enoic acid-(4′-trifluoromethylphenyl)-amide for treating multiple sclerosis” (Aventis Pharmaceuticals Inc., priority 2001, dated 2003).
# Assays:
# [1] = tested on: immune cells and cell lines
# [2] = biological target: dihydrooate dehydrogenase (Homo sapiens, UniProt Q02127); details: enzyme essential for the synthesis of pyrimidines
# dihydrooate dehydrogenase, sequence (Q02127 whole entry): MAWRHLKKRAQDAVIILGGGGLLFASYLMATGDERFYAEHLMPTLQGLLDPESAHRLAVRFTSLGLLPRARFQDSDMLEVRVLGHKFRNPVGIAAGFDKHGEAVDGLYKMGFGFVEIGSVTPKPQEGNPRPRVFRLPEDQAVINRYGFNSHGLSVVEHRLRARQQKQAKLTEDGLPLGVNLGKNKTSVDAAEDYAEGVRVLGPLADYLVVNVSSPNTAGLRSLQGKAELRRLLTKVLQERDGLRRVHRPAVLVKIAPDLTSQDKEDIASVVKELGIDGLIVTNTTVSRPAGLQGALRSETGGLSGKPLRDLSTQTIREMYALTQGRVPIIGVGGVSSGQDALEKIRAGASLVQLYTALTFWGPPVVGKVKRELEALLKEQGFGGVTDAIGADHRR
smiles,measurement,setting,value
"C/C(O)=C(\C#N)C(=O)Nc1ccc(C(F)(F)F)cc1 [Teriflunomide, (Z)-2-cyano-3-hydroxy-but-2-enoic acid-(4′-trifluoromethylphenyl)-amide]",antiproliferative effects on a wide variety of immune cells and cell lines,[1],antiproliferative effects
same,inhibition of the enzyme dihydrooate dehydrogenase,[2],inhibits
